From US20230111212A1, “MUSCLE TARGETING COMPLEXES AND USES THEREOF FOR TREATING DYSTROPHINOPATHIES” (Dyne Therapeutics, Inc., priority 2020, published 2023)

Tests used:
[1] = tested on: mdx mice (DMD mouse model); test: open field chamber experiment with hind limb fatigue challenge; assay type: in vivo; conditions: single i.v. dose 30 mg/kg, two weeks after injection
Method: (§1) Each experimental condition was replicated in five mdx mice. Five wild-type mice (healthy mice) were also dosed with vehicle control (saline).
Two weeks after injection, the functional activity of all treated mice was determined using an open field chamber experiment. The experiment involved three consecutive stages: (1) a 10-minute period during which each mouse was placed into an open field chamber; (2) a 10-minute period during which each mouse was subjected to a hind limb fatigue challenge; and (3) a 10-minute period during which each mouse was placed into an open field chamber. The total horizontal distances traveled during stages (1) and (3) were collected. The percent change in the total distance traveled between the first and second tests.

[2] = tested on: mdx mice (DMD mouse model); test: cage running wheel test; assay type: in vivo; conditions: single i.v. dose 30 mg/kg, four weeks after injection, 24-hour period
Method: as §1
Four weeks after injection, the activity of all treated mice was determined using a cage running wheel test. Each mouse was individually placed into cages with a running wheel for a 24-hour period. The 24-hour period involved five hours of light on followed by thirteen hours of darkness, and ending with six hours of light. The total distance traveled (in meters, m) by each mouse on the running wheel was continuously collected throughout the 24-hour period and subsequently binned into discrete one-hour increments.

creatine kinase = creatine kinase activity levels in mdx mice; assay type: in vivo, mouse; conditions: single i.v. dose 30 mg/kg, two and four weeks after injection
Method: as §1
All mice in this Example were further tested for creatine kinase activity levels two weeks and four weeks after injection.

## MDX-ASO: naked exon 23 skipping PMO ASO; GGCCAAACCUCGGCUUACCUGAAAU (SEQ ID NO: 277) (PMO chemistry, chemistry not fully specified)
[1]
  average decrease of total horizontal distance traveled during stage (3) relative to stage (1): about 85%
  functional performance in open field chamber experiment: same compromised functional performance as those treated with vehicle
[2]
  distance traveled on running wheel during the dark period: considerably shorter distances
Creatine kinase
  creatine kinase activity levels: no significant benefit
